EPA's ToxValDB 9.5 (doi:10.2903/j.efsa.2016.4515)
In brackets after ≈: the same amount, converted by molar mass.

Key:
Anas platyrhynchos = conditions: chronic/long-term
Colinus virginianus = conditions: acute, oral, mortality
Neomysis kadiakensis = conditions: chronic/long-term; duration: 28 days; reproduction
Bibionidae = conditions: chronic/long-term, other
Folsomia candida = conditions: chronic/long-term; mortality
Apis mellifera = conditions: acute, mortality
Aphidius rhopalosiphi = test: LR50; higher = less toxic; conditions: not reported; other

CO/C=C(/C(=O)OC)c1ccccc1COc1cccc(C(F)(F)F)n1 [Picoxystrobin]
LC50 (Oncorhynchus mykiss; acute, duration: 96 hours, mortality): 0.05 µg/mL (≈ 0.136 µM) | NOEC (Oncorhynchus mykiss; chronic/long-term, duration: 28 days, growth): 0.01 mg/L | NOEL (Anas platyrhynchos): 110 mg/kg-day | LD50 (Colinus virginianus; diet): > 1770 mg/kg-day | LD50 (Colinus virginianus): > 2250 mg/kg | NOEC (Neomysis kadiakensis): 0.0036 mg/L | LD50 (Rattus norvegicus; acute, mortality): > 5000 mg/kg | NOAEL (Rattus norvegicus; chronic): 21.8 mg/kg-day | LC50 (Tagia sp.; acute, mortality): 3.35 mg/kg | NOEC (Tagia sp.; chronic/long-term, reproduction): 0.315 mg/kg | NOEC (Bibionidae; duration: 21 days): 0.0084 mg/L | NOEC (Bibionidae; duration: 28 days): 5 mg/kg | NOEC (Folsomia candida): 12.5 mg/kg | LD50 (Apis mellifera; dermal): > 200 µg/piece | LD50 (Apis mellifera; oral, unspecified): > 200 µg/piece | LR50 (Aphidius rhopalosiphi): 0.675 g/ha
